# Data reported in ChEMBL document CHEMBL1144141, “Four new steroids from two octocorals” (J Nat Prod, 1999).
# Assays:
# Amphibalanus amphitrite [1] = assay: Lethality against Balanus amphitrite cyprid larvae
# Amphibalanus amphitrite [2] = assay: Antifouling activity against Balanus amphitrite assessed as inhibition of cyprid larval settlement; assay type: functional, organism-based
SMILES,LD100 (Amphibalanus amphitrite [1]) [µg/mL],EC50 (Amphibalanus amphitrite [2]) [µg/mL]
COC(=O)/C=C/[C@@H](C)[C@H]1CC[C@H]2[C@@H]3CCC4=CC(=O)C=C[C@]4(C)[C@H]3CC[C@]12C,100,–
C=C[C@H]1CC[C@H]2[C@@H]3CCc4cc(OC)ccc4[C@H]3CC[C@]12C,100,–
CC(C)=CC(O)C(O)[C@@H](C)[C@H]1CC[C@H]2[C@@H]3CC[C@H]4CC(=O)C=C[C@]4(C)[C@H]3CC[C@]12C (stereo partly drawn),100,–
C=C[C@H]1CC[C@H]2[C@@H]3CCc4cc(O[C@@H]5O[C@@H](C)[C@@H](OC(C)=O)[C@@H](O)[C@@H]5O)ccc4[C@H]3CC[C@]12C,100,–
CC(=O)O[C@H]1C[C@H]2[C@@H](CCC3=CC(=O)C=C[C@@]32C)[C@]23CC[C@]([C@H](C)CCCC(C)C)(O[C@@]12C)O3 [ISOGOSTERONE A],–,2.2
CC(=O)O[C@H]1C[C@H]2[C@@H](CCC3=CC(=O)C=C[C@@]32C)[C@]2(CC[C@@](O)([C@H](C)C(=O)CCC(C)C)O2)[C@@]1(C)O [ISOGOSTERONE B],–,2.2
CC(=O)OC(CCC(C)C)[C@@H](C)[C@]1(O)CC[C@@]2(O1)[C@@H]1CCC3=CC(=O)C=C[C@]3(C)[C@H]1C[C@H](OC(C)=O)[C@]2(C)O (stereo partly drawn) [ISOGOSTERONE C],–,2.2
CC(=O)OC(CCC(C)C)[C@@H](C)[C@]12CC[C@@]3(O1)[C@@H]1CCC4=CC(=O)C=C[C@]4(C)[C@H]1C[C@H](OC(C)=O)[C@]3(C)O2 (stereo partly drawn) [ISOGOSTERONE D],–,2.2
